Data taken from article PMC7062083, “Metabolite identification, tissue distribution, excretion and preclinical pharmacokinetic studies of ET-26-HCl, a new analogue of etomidate” (Royal Society Open Science, 2020).

Tests used:
[1] = Metabolic stability in monkey liver microsomes; format: in vitro ADME
Procedure: Samples were analysed by LC–MS/MS as mentioned above.2.1 CLint, in vitro=0.693/t1/2/Cprotein, 2.2 CLint, in vivo=CLint, in vitro×Houston×LW/1000 2.3 andCLhep in vivo=HBF × fu ×CLint, in vivo/HBF + fu ×CLint, in vivo. Where Cprotein is microsomal protein concentration (mg ml^−1); Houston is Houston factor (45 mg of microsomal protein g^−1 liver); LW is liver weight (g) (per species); HBF is hepatic blood flow (ml min^−1) (per species); fu (two places) and later is unbound fraction (fu = 1 − %protein binding).

[2] = Tissue distribution in Sprague Dawley rats; format: in vivo
Procedure: Concentrations of ET-26-HCl and ET-26-acid in biological samples were determined by liquid chromatography–tandem mass spectrometry (LC–MS/MS) after deproteinization with methanol. The bioanalytical method for simultaneous quantification of ET-26-HCl and ET-26-acid in the different matrix was fully validated according to FDA guidelines (electronic supplementary material, figure S1 and tables S1 and S2) in our previous study. Briefly, a 100 µl sample (plasma, tissue homogenate, bile, urine and faeces suspension) were spiked with 20 µl of IS solution and vortexed for 30 s. The mixture was then processed for protein precipitation with 300 µl methanol, followed by centrifugation at 12 000 r.p.m. for 5 min. Supernatant was collected and analysed by LC–MS/MS system.
Sprague Dawley (SD) rats (200–240 g) were provided by the Animal Facility at Sichuan University (Chengdu, China). All rats received a single 4.2 mg kg^−1 dose of ET-26-HCl intravenously. Rats were sacrificed and tissues, including heart, spleen, lung, intestine, colon, kidney, brain, fat, stomach, liver, muscle, testis and ovary were collected at 0, 1, 3, 6 and 10 h post-dosing (six rats/time-point). Tissue samples were rinsed thrice in ice cold saline, and blotted dry with filter papers. Weighed amount of tissues were homogenized in normal saline (thrice the tissue weight, w/v) and homogenates were stored at −80°C until analysis.

[3] = Identification of major metabolites in liver microsomes (UPLC-Q-TOF-MS); format: in vitro ADME, mouse, rat, beagle dog, monkey and human; conditions: 10 µM ET-26-HCl, 1 mg ml^−1 liver microsomes, NADPH, 1 h
Procedure: The major metabolites of ET-26-HCl in liver microsomes from mouse, rat, beagle dog, monkey and human were determined by the UPLC-Q-TOF-MS system.
Reaction mixture containing 10 µM ET-26-HCl, […] MgCl2 and 1 mg ml^−1 liver microsomes in Tris-HCl phosphate buffer (pH 7.4) was pre-incubated for 6 min at 37°C, followed by the addition of NADPH. After incubation for 1 h, methanol was added to stop the reaction. Samples were centrifuged at 11 000 r.p.m. for 5 min; supernatants were collected and air dried at 40°C. Residues were dissolved in 100 µl acetonitrile/water (1:1, v/v) and analysed by the UPLC-Q-TOF-MS.
The UPLC-Q-OF-MS system was equipped with a Waters Synapt G2-Si quadrupole time-of-flight mass spectrometer (Q-TOF-MS), an ESI source and an ACQUITY UPLC H-CLASS liquid chromatography system. The chromatographic separations were achieved on an ACQUITY UPLC BEH C18 column (2.1 × 100 mm, i.d. 1.7 µm, Waters, USA) kept at 45°C and a flow rate of 0.4 ml min^−1. The mobile phase consisted of 5 mM ammonium acetate with 0.1% formic acid (A) and acetonitrile with 0.1% formic acid (B). The optimized gradient elution programme followed was 0 min to 2.1 min, A/B (19/1, v/v); 2.1 min to 7.3 min, A/B (1/4, v/v); 7.3 min to 8.0 min, A/B (1/9, v/v); and 8.0 min to 10 min, A/B (19/1, v/v). The injection volume was 5 µl. The mass experiment was operated in positive ion modes under the following parameters: turbo spray temperature, 120°C; ion spray voltage, 3.0 kV. Nitrogen was used as the nebulizer and the auxiliary gas; meanwhile, the nebulizer gas was set to 650 l h^−1 and kept at 350°C. The collision energy was set at 5–10 V and the collision energy spread was 4–6 V. TOF-MS was scanned with the mass range of m/z 50–600 with 200 ms accumulation time. A 400 ng ml^−1 leu-enkephalin (m/z 556.2771) was selected as an external standard for mass–charge ratio correction at a flow rate of 5 µl min^−1.

[4] = Plasma protein binding, equilibrium dialysis, monkey plasma; format: in vitro ADME
Procedure: (§1) The PPB of ET-26-HCl in mouse, rat, beagle dog, monkey and human plasma was determined according to the equilibrium dialysis method. In brief, 1 ml of control plasma samples in dialysis bag was incubated in 10 ml of PBS containing ET-26-HCl at a final concentration of 2.21 × 10^2, 1.77 × 10^3 and 3.54 × 10^3 […] at 4°C with an equilibrium time of 9 h to reach the mass balance binding condition. A 100 µl aliquots of the PBS buffer and the plasma in the dialysis bag were transferred to 2 ml EP tubes and diluted to 995 µl with PBS and analysed on the LC–MS/MS system. The PPB (fppb) was calculated as follows: fppb=Din−Dout/Din×100% , where Din is the plasma drug concentration in the dialysis bag and Dout is the dialysate drug concentration.

[5] = Plasma protein binding, equilibrium dialysis, mouse plasma; format: in vitro ADME
Procedure: as §1

[6] = Plasma protein binding, equilibrium dialysis, rat plasma; format: in vitro ADME
Procedure: as §1

[7] = tested on: human plasma; test: Plasma protein binding, equilibrium dialysis, human plasma; format: in vitro ADME; conditions: overall over the three concentrations
Procedure: as §1

[8] = as above; format: in vitro ADME; conditions: human, plasma
Procedure: as §1

[9] = measured concentration 654 ng ml^−1
[10] = measured concentration 2.62 × 10^3 ng ml^−1, read-out: protein binding (converted)
[11] = measured concentration 5.23 × 10^3 ng ml^−1, read-out: protein binding (converted)
[12] = overall over the three concentrations, read-out: plasma protein binding rate (converted)

COCCOC(=O)c1cncn1[C@H](C)c1ccccc1.Cl [ET-26-HCl, (R)-2-methoxyethyl1-(1-phenylethyl)-1H-imidazole-5-carboxylate hydrochloride]
CLint, in vitro ([1]; monkey liver microsomes): 2216 ml min g^−1 protein | metabolic stability (in words) ([1]; monkey liver microsomes): not metabolically stable | time to complete disappearance of ET-26-HCl ([1]; monkey liver microsomes): ≤ 15 min | CLint, in vitro ([1]; monkey liver microsomes, Cprotein 0.33 mg ml^−1): 2216 ± 43.0 ml min^−1 g^−1 protein | extrapolated CLhep in vivo ([1]; monkey, from liver microsomes): 168 ± 0.05 mL/min | time for complete excretion from kidney ([2]; i.v. 4.2 mg kg^−1): ≤ 24 h | time for elimination from the brain ([2]; i.v. 4.2 mg kg^−1): ≤ 3 h | concentration in the brain ([2]; i.v. 4.2 mg kg^−1, at the onset): 2570 ng/mL | time for clearance from tissues ([2]; i.v. 4.2 mg kg^−1 ET-26-HCl): around 3 h | tissues with the highest concentration ([2]; i.v. 4.2 mg kg^−1 ET-26-HCl): Adipose tissue and liver | source (liver microsomes) in which detected [3]: human and dog | source (liver microsomes) in which detected ([3]; listed as M0): human, dog | fraction unbound at 9 h, 654 ng ml^−1 [4, 9]: 0.387 | fraction unbound at 9 h [4, 10]: 0.375 ± 0.0269 | fraction unbound at 9 h [4, 11]: 0.357 | fraction unbound at 9 h [4, 12]: 0.373 | fraction unbound at 9 h, 654 ng ml^−1 [5, 9]: 0.0453 | fraction unbound at 9 h [5, 10]: 0.0539 | fraction unbound at 9 h [5, 11]: 0.0702 | fraction unbound at 9 h [5, 12]: 0.0565 ± 0.000689 | fraction unbound at 9 h, 654 ng ml^−1 [6, 9]: 0.181 | fraction unbound at 9 h [6, 10]: 0.15 | fraction unbound at 9 h [6, 11]: 0.178 | fraction unbound at 9 h [6, 12]: 0.17 | plasma protein binding rate [7]: 68% | fraction unbound at 9 h, 654 ng ml^−1 [8, 9]: 0.372 | fraction unbound at 9 h [8, 10]: 0.318 | fraction unbound at 9 h [8, 11]: 0.261 | fraction unbound at 9 h [8, 12]: 0.317
